Reference: ChEMBL document CHEMBL4689842, “EUbOPEN Chemogenomics Library wave 1” (2021)

How the values were obtained:
Type in all cases: toxicity, cell-based
Fibroblast = test: Incucyte cell viability with human fibroblast; conditions: 10 µM, compound concentration 10 uM
U2OS = test: Incucyte cell viability with U2OS; conditions: human, 10 µM, compound concentration 10 uM
HEK-293T = test: Incucyte cell viability with HEK293T; conditions: human, 10 µM, compound concentration 10 uM
[1] = 0 h, replicate number 1, timepoint 0 hours
[2] = 0 h, replicate number 2, timepoint 0 hours
[3] = 12 h, replicate number 1, timepoint 12 hours
[4] = 18 h, replicate number 1, timepoint 18 hours
[5] = 24 h, replicate number 1, timepoint 24 hours
[6] = 24 h, replicate number 2, timepoint 24 hours
[7] = 6 h, replicate number 2, timepoint 6 hours
[8] = 12 h, replicate number 2, timepoint 12 hours
[9] = 6 h, replicate number 1, timepoint 6 hours
[10] = 18 h, replicate number 2, timepoint 18 hours
Note: filed as whole numbers so only -1 and 0 and 1 occur.

SMILES | Growth Rate (Fibroblast; [1]) | Growth Rate (U2OS; [2]) | Growth Rate (U2OS; [3]) | Growth Rate (U2OS; [4]) | Growth Rate (U2OS; [5]) | Growth Rate (HEK-293T; [1]) | Growth Rate (Fibroblast; [4]) | Growth Rate (Fibroblast; [5]) | Growth Rate (U2OS; [1]) | Growth Rate (U2OS; [9]) | Growth Rate (U2OS; [7]) | Growth Rate (U2OS; [10]) | Growth Rate (HEK-293T; [2]) | Growth Rate (HEK-293T; [9]) | Growth Rate (HEK-293T; [3]) | Growth Rate (HEK-293T; [4]) | Growth Rate (HEK-293T; [5]) | Growth Rate (Fibroblast; [9]) | Growth Rate (Fibroblast; [3]) | Growth Rate (Fibroblast; [10]) | also measured
Cc1ccc(-c2ccc3c(ccc4sc5c(c43)NC[C@@H](C)NC5=O)n2)cn1 | 0 | 0 | 1 | 1 | 1 | 1 |  |  |  |  |  |  |  |  |  |  |  |  |  |  | Growth Rate (HEK-293T; [6]): 1
O=c1ccn([C@@H]2O[C@H](COP(=O)([O-])OP(=O)([O-])O)[C@@H](O)[C@H]2O)c(=O)[nH]1.[Na+].[Na+] | 0 | 0 | 1 | 0 | 1 | 1 | 1 | 1 | 1 | 0 | 1 | 1 | 0 | 0 | 1 | 1 | 1 |  |  |  | Growth Rate (Fibroblast; [7]): 1; Growth Rate (Fibroblast; [8]): 1; Growth Rate (HEK-293T; [7]): 1
c1ccc(Nc2nc3c(s2)CCCc2[nH]ncc2-3)nc1 |  | 0 | 1 | 0 | 0 | 1 | 1 | 0 |  | 1 | 0 | 1 | 0 | 0 | 0 | 0 | 0 | 0 | 1 |  | Growth Rate (HEK-293T; [10]): 1; Growth Rate (HEK-293T; [6]): 1
FC(F)(F)c1cccc(-c2noc(-c3cc(-c4ccccc4)c(C(F)(F)F)s3)n2)c1 | 0 | 0 | 1 | 1 | 1 | 1 | 1 | 1 | 1 | 1 |  | 0 | 0 | 0 | 0 | 0 | 0 |  | 1 |  | Growth Rate (Fibroblast; [7]): 0; Growth Rate (Fibroblast; [6]): 0; Growth Rate (U2OS; [8]): 0
O=C(c1ccc(C(=O)N2CCC(N3CCCC3)CC2)c(Nc2ccccc2)c1)N1CCC(N2CCCC2)CC1 | 0 |  | 1 | 1 | 1 |  | 1 | 1 |  |  | 1 |  | 0 |  |  |  | 1 | 1 | 1 |  | 
Cc1nc(-c2ccc(C(F)(F)F)cc2)sc1COc1ccc([C@H](CC(=O)O)c2ccon2)cc1 | 0 | 0 | 0 | 0 | 0 |  | 1 | 0 |  |  | 0 | 1 | 0 | 0 | 0 | 0 | 0 | 0 | 1 | 0 | Growth Rate (Fibroblast; [8]): 0; Growth Rate (U2OS; [8]): 1; Growth Rate (U2OS; [6]): 1; Growth Rate (HEK-293T; [7]): 1
COc1cc(-c2cn(C)c(=O)c3cnccc23)c(OC)cc1CN(C)C | 0 |  | 1 | 0 | 1 | 1 | 0 | 0 | 0 | 0 | 1 | 1 |  |  | 1 | 0 | 0 | 0 | 0 |  | Growth Rate (Fibroblast; [7]): 1; Growth Rate (HEK-293T; [7]): 1; Growth Rate (HEK-293T; [6]): 1
Nc1cc(F)ccc1NC(=O)/C=C/c1cnn(C/C=C/c2ccccc2)c1 | 0 | 1 | 1 | 0 | 0 | 0 | 1 | 1 |  | 0 |  |  |  |  |  |  | 1 |  |  | 0 | Growth Rate (Fibroblast; [8]): 0; Growth Rate (Fibroblast; [6]): 0; Growth Rate (HEK-293T; [7]): 0; Growth Rate (HEK-293T; [8]): 1; Growth Rate (HEK-293T; [10]): 1; Growth Rate (HEK-293T; [6]): 0
Cn1cc(CCn2cnc(-c3cnn(C)c3)c2-c2ccc(C#N)cc2)cn1 |  | 0 | 1 | 1 | 1 | 1 | 1 | 1 | 1 | 1 |  | 0 |  |  |  | 1 | 1 | 0 | 1 | 0 | Growth Rate (Fibroblast; [2]): 0; Growth Rate (Fibroblast; [7]): 1; Growth Rate (Fibroblast; [6]): 0; Growth Rate (HEK-293T; [7]): 1; Growth Rate (HEK-293T; [8]): 1
Cc1nnc2c3ccccc3c(N[C@@H](C)[C@H](c3ccccc3)N(C)C)nn12 | 0 |  | 1 | 1 | 1 | 0 | 1 | 1 | 0 | 0 | 1 |  | 1 | 0 | 0 | 0 | 0 | 1 | 1 | 0 | Growth Rate (Fibroblast; [7]): 0; Growth Rate (Fibroblast; [6]): 0
Cc1c(C(=O)O)cc(-c2ccc(C3CCNCC3)cc2)c2ccc(-c3ccc(C(F)(F)F)cc3)cc12.Cl | 0 |  | 1 | 0 | 0 |  | 0 | 0 | 0 |  |  | 1 | 0 | 0 | 0 | 0 | 0 | 0 | 0 |  | Growth Rate (Fibroblast; [2]): 1; Growth Rate (Fibroblast; [7]): 1; Growth Rate (U2OS; [6]): 1
C=CC(=O)Nc1ccc2[nH]c(=O)n(C3CCN(C(=O)c4ccc(-c5nc6cc[nH]c(=O)c6cc5-c5ccccc5)cc4)CC3)c2c1 | 0 | 0 | 1 | 1 | 1 | 0 | 1 | 1 |  | 1 |  |  |  |  |  |  |  |  | 1 |  | Growth Rate (HEK-293T; [6]): 1
O=C(Nc1cccnn1)N1CC(C/C=C/c2cncc(Oc3ccc(C(F)(F)F)cn3)n2)C1 | 0 | 1 | 1 | 1 | 1 | 0 |  | 1 | 0 | 0 |  | 0 | 1 | 0 |  |  | 1 |  |  | 1 | Growth Rate (Fibroblast; [8]): 1; Growth Rate (U2OS; [6]): 0; Growth Rate (HEK-293T; [8]): 1
Cl.O=C([C@@H](Cc1cccc(C(F)(F)F)c1)NS(=O)(=O)c1cc(F)c2c(c1)CCNC2)N1CCCC1 |  |  | 1 | 0 | 1 | 0 |  | 1 | 0 | 0 | 1 | 1 | 1 |  |  |  |  |  | 1 | 1 | Growth Rate (Fibroblast; [2]): 1; Growth Rate (HEK-293T; [7]): 1; Growth Rate (HEK-293T; [8]): 1; Growth Rate (HEK-293T; [6]): 1
COc1cc(OC)cc(-c2noc(N3CCN(C)C4(CCN(c5ccnc(C)c5)CC4)C3)n2)c1 |  |  | 0 | 0 | 0 |  | 1 | 0 | 0 | 0 | 1 | 1 |  | 0 |  |  | 1 | 0 | 1 | 0 | Growth Rate (Fibroblast; [2]): 0; Growth Rate (Fibroblast; [7]): 1; Growth Rate (Fibroblast; [8]): 0; Growth Rate (U2OS; [8]): 1; Growth Rate (U2OS; [6]): 1; Growth Rate (HEK-293T; [8]): 1
COC1CCN(c2cccc(-c3cc(NC(C)=O)nc(-n4nc(C)cc4C)n3)n2)CC1 | 0 |  | 0 | 0 | 0 | 0 | 1 | 0 | 0 |  | 0 |  |  | 0 | 0 | 0 | 0 | 1 | 1 | 0 | Growth Rate (Fibroblast; [7]): 0; Growth Rate (Fibroblast; [8]): 0
Cc1cnc(Nc2ccc(F)cc2Cl)nc1-c1c[nH]c(C(=O)N[C@H](CO)c2cccc(Cl)c2)c1 |  | 1 | 0 | 0 | 0 | 0 | 0 | 0 | 0 | 0 |  |  |  | 0 | 0 | 0 | 0 | 0 | 1 | 1 | Growth Rate (Fibroblast; [2]): 0; Growth Rate (Fibroblast; [6]): 1
NC(CCP(=O)(O)O)C(=O)O (racemic) | 0 |  | 1 | 1 | 1 | 0 |  | 1 | 0 |  | 0 |  |  | 1 | 1 | 1 | 1 |  |  | 1 | 
CN(C)[C@H]1CCN(c2cc(-c3ccccc3)nc3ccnn23)C1 [(S)-ZINC-3573] | 0 |  | 0 | 0 | 0 | 1 | 0 | 1 |  | 0 |  | 1 | 0 | 0 | 0 | 0 | 0 | 0 | 0 |  | Growth Rate (Fibroblast; [2]): 1; Growth Rate (U2OS; [6]): 1
CCC(=N\O)/C(C)=C/c1ccc(F)c(C)c1 [A-226] | 0 | 1 | 1 | 0 | 0 |  | 0 | 1 | 0 | 0 |  | 1 | 0 | 0 | 0 | 0 | 0 | 0 | 0 | 1 | Growth Rate (U2OS; [6]): 1
O=C(NS(=O)(=O)c1ccc(NCC2CCOCC2)c([N+](=O)[O-])c1)c1ccc(N2CCN(Cc3ccc(C(F)(F)F)cc3-c3ccc(Cl)cc3)CC2)cc1Oc1cnc2[nH]ccc2c1 [A-1210227] | 0 |  | 1 | 0 | 1 | 0 | 1 | 1 | 0 | 0 |  |  |  | 0 |  |  |  | 1 | 1 |  | Growth Rate (U2OS; [8]): 0; Growth Rate (U2OS; [6]): 0; Growth Rate (HEK-293T; [6]): 1
